From PMC3812159, “A Comparative Analysis of the Ubiquitination Kinetics of Multiple Degrons to Identify an Ideal Targeting Sequence for a Proteasome Reporter” (PLoS ONE, 2013)
Read-outs that look alike come from different tables or passages of the source. Residues, ends and D or L forms follow the SMILES beside them. *: point of attachment. 5FAM = O=C1OC2(c3ccc(O)cc3Oc3cc(O)ccc32)c2ccc(C(=O)*)cc21

Assays:
[1] = test system: HeLa S100 cytosolic lysates as the source of E1, E2, and E3 enzymes; assay: Ubiquitin pull down assay with methylated ubiquitin, multi-monoubiquitination kinetic model; assay type: biochemical; settings: for k1/k5, mono-ubiquitination vs. degradation of unmodified substrate: ratio of fitted rate constants, >1 favours ubiquitination, <1 degradation; for substrate ubiquitination, fluorescent intensity compared to unmodified substrate: ubiquitin pull down, methylated ubiquitin, time points up to 240 min, n = 3
Excerpt: A second model based on substrate multi-monoubiquitination was developed and evaluated. This model assumed that the generation of di-, tri-, and tetra-ubiquitinated species was the result of multiple methylated ubiquitins being conjugated to the multiple available lysines found on the degron-based substrate (Figure 3a). As opposed to the polyubiquitination model, the multi-monoubiquitination model accurately fit the data for all eight degron-based substrates (Figure 3b–d, Figure S4 in File S1, Table 2). Using this model, kinetic rate constants for all ubiquitination (k1 for mono-, k2 for di-, k3 for tri-, and k4 for tetra-) and peptidase-dependent degradation steps (Table 2) were calculated. The multi-monoubiquitination model nicely corresponded to the observed results in Figure 2. […] The model also captured the preference for di-ubiquitination of the Cyclin D1 degron (k2 is two-fold greater than k1) and the equal preference of mono- and di-ubiquitination states found in the HIF-1α degron (k1 of 2.6 and k2 of 3.0). Further, the similar behavior and observed kinetics for IFNAR and TAZ degrons were mostly likely due to the fact that these degrons are recognized by the same E3 ligase, SCF^βTrCP (Table 1). To test the robustness of the multi-monoubiquitination model, a ninth substrate based on the degron from the protein β-Catenin was assessed. This substrate was selected because it is ubiquitinated by the same E3 ligase as TAZ and IFNAR1, SCF^βTrCP. The model accurately fit the data for the multi-monoubiquitination of the β-Catenin degron-based substrate with similar rate constants compared to the TAZ and IFNAR1-based substrates (Table 2). Finally, it was important to assess the validity of the model by addressing the relative goodness of fit between the experimental data and the model predictions as determined from the multi-monoubiquitination model. For this particular analysis it was decided to calculate the sample Pearson correlation coefficient (Eq. S10 in File S1), a widely used metric to measure the dependence between two variables. A correlation coefficient was calculated between the model predictions and experimental data for mono-, di-, tri-, and tetra-ubiquitinated substrate for all nine degron-based substrates (Table S1 in File S1). As per convention, a positive value approaching 1 corresponds to a very good fit, which is observed for all nine substrates indicating a good fit between model and data.

[2] = test system: endogenous proteases and peptidases found in the S100 lysates
Experimental: (§1) The in vitro ubiquitination assay was carried out at the indicated times at 37°C in a total reaction volume of 25 µL containing assay buffer (10 mM Tris-HCl pH 7.6 and 5 mM MgCl2) with 2 mM DTT, 20 µg/mL ubiquitin aldehyde (Boston Biochem), 400 µg/mL methylated ubiquitin (Enzo Life Sciences), 1×ATP energy regenerating solution (ATP-ERS, Boston Biochem), 100 µM of the proteasome inhibitor MG-132 (EMD Chemicals), 2 mg/mL HeLa S100 cytosolic lysates as the source of E1, E2, and E3 enzymes, 750 ng of indicated peptide substrate, and inhibitors Complete ULTRA and PhosSTOP (Roche). Reactions were halted by addition of 2× tricine sample buffer (Bio-Rad) and subsequent boiling. Samples were loaded onto SDS page gels (precast 16.5% Mini PROTEAN Tris-Tricine, Bio-Rad) using 1× tris-tricine running buffer and visualized with a Typhoon Imager (GE Healthcare Life Sciences). Gels were quantified using ImageJ (US National Institute of Health) by comparing sample intensity to unreacted parent peptide intensity, which is not depicted in the gels.
(§2) Ubiquitin pull down assays were performed similarly to the in vitro ubiquitination assay as described above, with the exception of a total volume of 100 µL and 4.2 µg of peptide substrate. At the end of the indicated times, samples were incubated with Control-Agarose beads (LifeSensors), diluted in TBS-T buffer (20 mM Tris-HCl pH 8.0, 150 mM NaCl, and 0.1% v/v Tween-20), for 60 min on a tube rotator at 4°C. Samples were subsequently centrifuged at 1800×g for 5 min to pellet and remove control beads. The supernatant was transferred to solution of Agarose-TUBES1 (LifeSensors) diluted in TBS-T and incubated overnight on a tube rotator at 4°C. Ubiquitin-bound beads were washed 5× with TBS-T and then the samples were eluted off of the bead with 2× tricine sample buffer, boiled for 5 min, and then isolated by centrifugation for 5 min at 13000×g. Samples were loaded onto an SDS PAGE gel, electrophoresed, visualized and quantified as described above.
(§3) The series of ordinary differential equations were solved in MATLAB using ODE15s and the boundary conditions defined in equations S1–S6. Kinetic rate constants were determined using a Markov Chain Monte Carlo (MCMC) algorithm in MATLAB by minimizing the cumulative sum of the squared deviations (cSSD), as defined by equations S8–S9, between the calculated and experimental data similar to previous work by Cirit et. al. [23].
(§4) To accomplish this objective, a kinetic model was developed to describe the step-wise ubiquitination of the degron-based substrates. The goal of this model was to both determine the reaction kinetics for ubiquitin transfer to the degron-based substrates and distinguish polyubiquitination from multi-monoubiquitination. […] Each step in the reaction was described by a corresponding rate constant (k1–k9). Due to the presence of the deubiquitinating enzyme (DUB) inhibitor ubiquitin aldehyde, substrate deubiquitination was neglected. Further, the proteasome inhibitor MG-132 was added at an appropriate amount to neglect proteasome-mediated degradation of the substrates.

[3] = test system: endogenous proteases and peptidases found in the S100 lysates; assay: Peptidase-dependent degradation rate constants from the multi-monoubiquitination model; settings: values multiplied by 10^3; for k5, rate constant for peptidase-dependent degradation of unmodified parent substrate: HeLa S100 cytosolic lysates 2 mg/mL, proteasome inhibited by 100 µM MG-132, pH 7.6, 37°C, 12-14 µM peptide, model-fitted (MCMC), degraded substrate not measured; for k6, rate constant for peptidase-dependent degradation of mono-ubiquitinated substrate / k7, rate constant for peptidase-dependent degradation of di-ubiquitinated substrate / k8, rate constant for peptidase-dependent degradation of tri-ubiquitinated substrate / k9, rate constant for peptidase-dependent degradation of tetra-ubiquitinated substrate: as k5, HeLa S100 lysates, MG-132, 37°C, model-fitted
Experimental: as §1, §2, §3, §4

KKYSSQTSQDSGNYSNK(FAM)KKK [IFNAR1]
k1/k5, mono-ubiquitination vs. degradation of unmodified substrate [1]: 0.96 | k6, rate constant for peptidase-dependent degradation of mono-ubiquitinated substrate [2]: 0.01 (1/min)*10^3 | k7, rate constant for peptidase-dependent degradation of di-ubiquitinated substrate [2]: 0.01 (1/min)*10^3 | k8, rate constant for peptidase-dependent degradation of tri-ubiquitinated substrate [2]: 0.01 (1/min)*10^3 | k9, rate constant for peptidase-dependent degradation of tetra-ubiquitinated substrate [2]: 0.1 (1/min)*10^3

CC(=O)N[C@@H](CCCCN)C(=O)N1CCC[C@H]1C(=O)N[C@@H](CC(C)C)C(=O)N[C@@H](CO)C(=O)N[C@@H](CO)C(=O)N[C@@H](CO)C(=O)N[C@H](C(=O)N1CCC[C@H]1C(=O)N[C@@H](CO)C(=O)N[C@@H](CCC(N)=O)C(=O)N[C@@H](CCCCN)C(=O)N[C@H](C(=O)N[C@@H](Cc1ccc(O)cc1)C(=O)N[C@@H](CCC(N)=O)C(=O)NCC(=O)N[C@@H](CO)C(=O)N[C@@H](Cc1ccc(O)cc1)C(=O)NCC(=O)N[C@@H](Cc1ccccc1)C(=O)N[C@@H](CCCNC(=N)N)C(=O)N[C@@H](CC(C)C)C(=O)NCC(=O)N[C@@H](CCCCNC(=O)c1ccc2c(c1)C(=O)OC21c2ccc(O)cc2Oc2cc(O)ccc21)C(=O)N[C@@H](CCCCN)C(=O)N[C@@H](CCCCN)C(=O)N[C@@H](CCCCN)C(N)=O)[C@@H](C)O)C(C)C [p53] (Ac-KPLSSSVPSQKTYQGSYGFRLGK(5FAM)KKK-NH2)
k6, rate constant for peptidase-dependent degradation of mono-ubiquitinated substrate [2]: 0.01 (1/min)*10^3 | k7, rate constant for peptidase-dependent degradation of di-ubiquitinated substrate [2]: 0.01 (1/min)*10^3 | k8, rate constant for peptidase-dependent degradation of tri-ubiquitinated substrate [2]: 0.01 (1/min)*10^3 | k9, rate constant for peptidase-dependent degradation of tetra-ubiquitinated substrate [2]: 0.33 (1/min)*10^3

K-(PEG)-KEEKDINNNVKKTK(FAM)KKK [iNOS]
k1/k5, mono-ubiquitination vs. degradation of unmodified substrate [1]: 1.62 | substrate ubiquitination, fluorescent intensity compared to unmodified substrate [1]: higher ubiquitination | k6, rate constant for peptidase-dependent degradation of mono-ubiquitinated substrate [2]: 1.0 (1/min)*10^3 | k7, rate constant for peptidase-dependent degradation of di-ubiquitinated substrate [2]: 0.01 (1/min)*10^3 | k8, rate constant for peptidase-dependent degradation of tri-ubiquitinated substrate [2]: 0.01 (1/min)*10^3 | k9, rate constant for peptidase-dependent degradation of tetra-ubiquitinated substrate [2]: 0.3 (1/min)*10^3

CC(=O)N[C@@H](CCCCN)C(=O)N[C@H](C(=O)N[C@@H](CCCNC(=N)N)C(=O)NCC(=O)N[C@H](C(=O)N[C@@H](CCC(=O)O)C(=O)N[C@@H](CCC(=O)O)C(=O)N[C@H](C(=O)N[C@@H](C)C(=O)N[C@@H](CCC(=O)O)C(=O)NCC(=O)N[C@H](C(=O)N[C@H](C(=O)N[C@@H](CC(C)C)C(=O)N[C@@H](CC(C)C)C(=O)N[C@@H](CCCNC(=N)N)C(=O)N[C@@H](CCCNC(=N)N)C(=O)N[C@@H](CCCNC(=N)N)C(=O)NCC(=O)N[C@@H](CC(N)=O)C(=O)N[C@@H](CCCCNC(=O)c1ccc2c(c1)C(=O)OC21c2ccc(O)cc2Oc2cc(O)ccc21)C(=O)N[C@@H](CCCCN)C(=O)N[C@@H](CCCCN)C(=O)N[C@@H](CCCCN)C(N)=O)C(C)C)C(C)C)C(C)C)C(C)C)[C@@H](C)O [Bonger] (Ac-KTRGVEEVAEGVVLLRRRGNK(5FAM)KKK-NH2)
k5, rate constant for peptidase-dependent degradation of unmodified parent substrate [3]: 4.0 (1/min)*10^3 | k6, rate constant for peptidase-dependent degradation of mono-ubiquitinated substrate [3]: 0.01 (1/min)*10^3 | k7, rate constant for peptidase-dependent degradation of di-ubiquitinated substrate [3]: 1.0 (1/min)*10^3 | k8, rate constant for peptidase-dependent degradation of tri-ubiquitinated substrate [3]: 0.01 (1/min)*10^3 | k9, rate constant for peptidase-dependent degradation of tetra-ubiquitinated substrate [3]: 0.01 (1/min)*10^3

KPFLNGGPYHSREQSTDSGLGLGSYK(FAM)KKK [TAZ]
k1/k5, mono-ubiquitination vs. degradation of unmodified substrate [1]: 2.65 | k6, rate constant for peptidase-dependent degradation of mono-ubiquitinated substrate [2]: 1.5 (1/min)*10^3 | k7, rate constant for peptidase-dependent degradation of di-ubiquitinated substrate [2]: 0.1 (1/min)*10^3 | k8, rate constant for peptidase-dependent degradation of tri-ubiquitinated substrate [2]: 0.5 (1/min)*10^3 | k9, rate constant for peptidase-dependent degradation of tetra-ubiquitinated substrate [2]: 0.1 (1/min)*10^3

CC[C@H](C)[C@H](NC(=O)[C@H](Cc1ccc(O)cc1)NC(=O)[C@@H]1CCCN1C(=O)[C@H](C)NC(=O)[C@H](CC(C)C)NC(=O)[C@H](C)NC(=O)[C@H](CCC(=O)O)NC(=O)[C@H](CC(C)C)NC(=O)[C@H](CC(=O)O)NC(=O)[C@H](CC(C)C)NC(=O)[C@H](CC(=O)O)NC(=O)[C@H](C)NC(=O)[C@H](CO)NC(=O)[C@H](C)NC(C)=O)C(=O)N1CCC[C@H]1C(=O)N[C@@H](C)C(=O)N[C@@H](CC(=O)O)C(=O)N[C@@H](CC(=O)O)C(=O)N[C@@H](CC(=O)O)C(=O)N[C@@H](Cc1ccccc1)C(=O)N[C@@H](CCC(N)=O)C(=O)N[C@@H](CC(C)C)C(=O)N[C@@H](CCCNC(=N)N)C(=O)N[C@@H](CCCCNC(=O)c1ccc2c(c1)C(=O)OC21c2ccc(O)cc2Oc2cc(O)ccc21)C(=O)N[C@@H](CCCCN)C(=O)N[C@@H](CCCCN)C(=O)N[C@@H](CCCCN)C(N)=O [HIF-1α] (Ac-ASADLDLEALAPYIPADDDFQLRK(5FAM)KKK-NH2)
k5, rate constant for peptidase-dependent degradation of unmodified parent substrate [3]: 7.0 (1/min)*10^3 | k6, rate constant for peptidase-dependent degradation of mono-ubiquitinated substrate [3]: 0.1 (1/min)*10^3 | k7, rate constant for peptidase-dependent degradation of di-ubiquitinated substrate [3]: 0.1 (1/min)*10^3 | k8, rate constant for peptidase-dependent degradation of tri-ubiquitinated substrate [3]: 0.4 (1/min)*10^3 | k9, rate constant for peptidase-dependent degradation of tetra-ubiquitinated substrate [3]: 0.8 (1/min)*10^3

KAAEEEEVSLASTPTDVRDVDIK(FAM)KKK [Cyclin D1]
k1/k5, mono-ubiquitination vs. degradation of unmodified substrate [1]: 0.47 | substrate ubiquitination, fluorescent intensity compared to unmodified substrate [1]: lowest degree of ubiquitination | k6, rate constant for peptidase-dependent degradation of mono-ubiquitinated substrate [2]: 0.01 (1/min)*10^3 | k7, rate constant for peptidase-dependent degradation of di-ubiquitinated substrate [2]: 0.01 (1/min)*10^3 | k8, rate constant for peptidase-dependent degradation of tri-ubiquitinated substrate [2]: 0.01 (1/min)*10^3 | k9, rate constant for peptidase-dependent degradation of tetra-ubiquitinated substrate [2]: 1.8 (1/min)*10^3

K-(PEG)-DVQKADVSSTGQGIDSK(FAM)KKK [SRC3]
substrate ubiquitination, fluorescent intensity compared to unmodified substrate [1]: lowest degree of ubiquitination | k6, rate constant for peptidase-dependent degradation of mono-ubiquitinated substrate [2]: 0.01 (1/min)*10^3 | k7, rate constant for peptidase-dependent degradation of di-ubiquitinated substrate [2]: 0.01 (1/min)*10^3 | k8, rate constant for peptidase-dependent degradation of tri-ubiquitinated substrate [2]: 0.01 (1/min)*10^3 | k9, rate constant for peptidase-dependent degradation of tetra-ubiquitinated substrate [2]: 0.33 (1/min)*10^3
